Values of other authors as cited in US20240091141A1, “METHODS AND COMPOSITIONS FOR THE ABLATION OF NERVES” (TULAVI THERAPEUTICS, INC., priority 2021, published 2024).

What was measured:
sympathetic ganglia cell = settings: in vitro; 4 ug/ml (10 uM)
[1] = system: sympathetic, sensory and motor neurons
a range of cell types = settings: across a range of cell types
[2] = meta-analysis covering over 12,000 patients

Cholesterol oxides
time to sympathetic ganglia cell death (sympathetic ganglia cell): ≤ 36 h

CCO [ethanol]
concentrations that result in neurolysis [1]: above 50% | destruction of neurons ([1]; One-hundred percent ethanol): completely destroy the cell bodies and axons

C[C@H](CCCC(C)(C)O)[C@H]1CC[C@H]2[C@@H]3CC=C4C[C@@H](O)CC[C@]4(C)[C@H]3CC[C@]12C [25-OH-cholesterol]
neurotoxicity (a range of cell types): demonstrated neurotoxicity

hyaluronic acid
effect of intraarticular injections [2]: either no effect or a “clinically irrelevant effect”
